pIC50: −log10 of the molar value.
The compounds below were run against T1, Bcl-2-related protein A1 (Mus musculus, UniProt Q07440) (assay: displacement of Bid BH3 peptide from Bfl-1 – biochemical, fluorescence polarization, FITC-Bid, mouse, primary screen (AID 432)). Settings: pH 7; 23 °C.
T1 sequence (Q07440 whole entry): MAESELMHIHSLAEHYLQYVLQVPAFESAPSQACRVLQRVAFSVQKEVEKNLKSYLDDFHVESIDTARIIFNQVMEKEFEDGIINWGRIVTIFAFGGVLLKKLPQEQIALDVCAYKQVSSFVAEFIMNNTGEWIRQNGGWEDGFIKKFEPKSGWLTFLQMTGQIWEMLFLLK

pIC50, < 4.00:
c1ccc(-c2ccc(C3=Nc4ncnn4C(c4ccco4)C3)cc2)cc1 (stereo not drawn)
O=C1C(=O)N(c2ncccn2)C(c2cccc(Cl)c2)C1C(=O)c1ccco1 (stereo not drawn) [2-(3-chlorophenyl)-3-(furan-2-carbonyl)-4-hydroxy-1-pyrimidin-2-yl-2H-pyrrol-5-one]
OCCCc1nc2n(n1)C(c1cccs1)CC(c1ccccc1)=N2 (stereo not drawn) [3-(5-phenyl-7-thiophen-2-yl-1,7-dihydro-[1,2,4]triazolo[1,5-a]pyrimidin-2-yl)-1-propanol]
COc1ccc(N2C(=O)C(=Nc3c(C)n(C)n(-c4ccccc4)c3=O)C(Cl)C2=O)cc1 (stereo not drawn) [3-chloranyl-4-[(1,5-dimethyl-3-oxidanylidene-2-phenyl-pyrazol-4-yl)amino]-1-(4-methoxyphenyl)pyrrole-2,5-dione]
CCCN1CCC2=C(C#N)C(=N)C(C#N)(C#N)C(c3cccc(OC)c3OC)C2C1 (stereo not drawn) [6-amino-8-(2,3-dimethoxyphenyl)-2-propyl-1,3,8,8a-tetrahydroisoquinoline-5,7,7-tricarbonitrile]
CN1CCC2=C(C#N)C(=N)C(C#N)(C#N)C(c3cccc(Cl)c3Cl)C2C1 (stereo not drawn) [6-azanyl-8-[2,3-bis(chloranyl)phenyl]-2-methyl-1,3,8,8a-tetrahydroisoquinoline-5,7,7-tricarbonitrile]
CN1CCC2=C(C#N)C(=N)C(C#N)(C#N)[C@H](c3cccc(Cl)c3)C2C1 (stereo partly drawn) [(8S)-6-amino-8-(3-chlorophenyl)-2-methyl-1,3,8,8a-tetrahydroisoquinoline-5,7,7-tricarbonitrile]
Cc1ccc(C2C3CN(C(C)C)CCC3=C(C#N)C(=N)C2(C#N)C#N)cc1 (stereo not drawn) [SMR000034220]

Reference: BindingDB's records for doi:10.7270/Q2N014W6 (Burnham Center for Chemical Genomics, 2008)
